From patent publication US10203334B2, “Methods and compositions related to nucleic acid binding assays” (Nubad, LLC, priority 2012, dated 2019)

Experiments:
Type in all cases: binding
[1] = system: E. coli ribosomal A-site oligonucleotide (SEQ ID No. 1); experiment: 96-well F-neo displacement HTS on ribosomal A-site; conditions: 96-well plate reader; 0.30 mM F-neo and 0.3 mM A-site oligonucleotide
Text: [drawing 24] where FHNeo represents the protonated form of F-neo. F(-)Neo, upon binding to nucleic acids such as DNA or RNA, is destabilized by the nucleic acid backbone negative potential, shifting the equilibrium towards FH, making F-neo a weaker acid, raising the pKa, which is what we observe upon binding to the A-site. For the A-site targeted assay, we calculated the Z' factor (Z=1-3(2.7+2.8)/(414-267)=0.89. […] Provided is a detailed example for the development of a HTS by the displacement of a fluorescene-neomycin (F-neo (42a)) from rRNA A-site oligonucleotide (SEQ ID No. 1) using a 96 well plate format and a fluorescent plate reader. […] This HTS involves the displacement of a fluorescene-neomycin (F-neo (42a)) by potential RNA binding molecules in a 96 well plate format using a fluorescent plate reader. […] F-neo based RNA binding assays have been performed using a fluorescence spectrophotometer with a 96-well plate reader and results recorded in FIG. 4. […] Fo is defined as the baseline fluorescence intensity of the RNA/F-neo complex and F is the intensity with added drug. The difference between the fluorescence intensity baseline of F-neo/A-site complex and complex with added drug (F-Fo) indicates the extent of the competition of drug for the binding site, this allows the relative binding affinities of aminoglycosides to be established. […]

[2] = system: hybrid duplex poly(dA).poly(rU); experiment: Competition dialysis; conditions: under these salt conditions (100-200 mM Na^+)
Text: (§1) Disclosed is the use of fluorescent aminosugar probes such as F-neo (42a) to probe a variety of nucleic acid targets. Competition dialysis was used as a nucleic acid screening technique to illustrate the binding of F-neo (42a) to different nucleic acid structures.
(§2) Competition dialysis studies using a fluorescein-neomycin conjugate (F-neo (42a)). […] Comparative binding of F-neo (42a) to 13 different nucleic acid structures was examined which included single strand nucleic acids [poly(dT), poly(A), poly(U)], duplexes [poly(dA).poly(dT), poly(rA).poly(dT), poly(rA).poly(rU), poly(dA).poly(rU), poly(dG).poly(dC), calf thymus], triplexes [poly(dA).2poly(dT), poly(rA).2poly(rU)], i-motif (polydC) and 16S A-site rRNA (SEQ ID No. 1). The amount of F-neo (42a) bound to each nucleic acid is shown as a bar graph in FIG. 13. Because all nucleic acids are dialyzed simultaneously in the same ligand solution, the amount of bound F-neo (42a) is directly proportional to its affinity for each nucleic acid. […] 200 μL of different nucleic acids (7.5 μM per monomeric unit of each polymer) was dialyzed for 72 h with 400 mL 100 nM ligand in 6 mM Na2HPO4, 2 mM NaH2PO4, 1 mM Na2EDTA, pH 7.0 and various Na+ concentrations as indicated.
(§3) F-neo (42a) prefers to bind to 16S A-site rRNA yielding a bound ligand concentration of 85 nM in 100 mM Na^+, 50 nM in 150 mM Na^+, and 15 nM in 200 mM Na^+ is shown in FIG. 15.

[3] = system: RNA duplex poly(rA).poly(rU); experiment: Competition dialysis; conditions: under these salt conditions (100-200 mM Na^+)
Text: as §1, §2, §3

[4] = system: human ribosomal A-site (SEQ ID NO. 2); experiment: Quenching of F-neo by ribosomal A-site mimics, 96-well; conditions: 0.1 μM RNA to 0.1 μM F-neo (42a); em 535 nm, ex 485 nm; ten wells averaged
Procedure: (§4) Disclosed is an HTS showing the difference in the binding affinity of fluorescene-neomycin (F-neo (42a)) to various synthetic RNA sequence 27 bases long designed to mimic the ribosomal A-site using a 96 well plate format and a fluorescent plate reader. Differences in binding are determined by the differential quenching of F-neo (42a) upon binding to the RNA.
(§5) Following the SOP's established for F-neo (42a) binding to E. coli A-site, each sequence was added at 0.1 μM RNA to 0.1 μM F-neo (42a) using 100 reads/well using a Tecan Genios Pro plate reader in a 96 well Greiner black plate. The emission was measured at wavelength 535 nm, using an excitation wavelength of 485 nm. All experiments were performed in 10 mM hepes (7.0), 50 mM NaCl, and 0.4 mM EDTA.

[5] = system: mutant mitochondria ribosomal A-site (SEQ ID NO. 4); experiment: as above; conditions: 0.1 μM RNA to 0.1 μM F-neo (42a); em 535 nm, ex 485 nm; ten wells averaged
Procedure: as §4, §5

[6] = system: E. coli ribosomal A-site (SEQ ID No. 1); experiment: as above; conditions: 0.1 μM RNA to 0.1 μM F-neo (42a); em 535 nm, ex 485 nm; ten wells averaged
Procedure: as §4, §5

[7] = system: mitochondria ribosomal A-site (SEQ ID NO. 3); experiment: as above; conditions: 0.1 μM RNA to 0.1 μM F-neo (42a); em 535 nm, ex 485 nm; ten wells averaged
Procedure: as §4, §5

Structure (SMILES): NCC1O[C@H](OC2C(O)C(OC3C(O)[C@H](N)CC(N)[C@H]3O[C@H]3OC(CN)[C@@H](O)C(O)C3N)O[C@@H]2CSCCNC(=O)CCSCC(=O)Nc2ccc(-c3c4ccc(=O)cc-4oc4cc(O)ccc34)c(C(=O)O)c2)C(N)C(O)[C@@H]1O (stereo partly shown) [F-neo (42a), Neomycin-Fluorescein Conjugate]
- reduction in fluorescence intensity on addition of A-site [1]: 2 fold
- bound drug [2]: 10 to 20 nM
- bound drug [3]: 10 to 20 nM
- fluorescence of F-neo with RNA [4]: 9503 (±208)
- fluorescence of F-neo with RNA [5]: 8515 (±230)
- fluorescence of F-neo with RNA [6]: 7963 (±221)
- fluorescence of F-neo with RNA [7]: 11987 (±445)
